# Results as given in patent US12233128B2, “Degraders that target ALK and therapeutic uses thereof” (DANA-FARBER CANCER INSTITUTE, INC., priority 2018, dated 2025).
# Legend:
# Assay type in all cases: cell-based
# [1] = molecular target: T1, ALK (Homo sapiens, UniProt Q9UM73); assay: Western blot, degradation of ALK in H3122 cells; conditions: for degradation of ALK: 16-hour treatment, 0.01-1 μM
# T1 construct: EML4 N-terminal fusion partner (human entry Q9HC35); endogenous in cells; host or cells: H3122; the other entry of the earlier key: EML4 (Q9HC35, Echinoderm microtubule-associated protein-like 4)
# Protocol: (§1) Blotting: Cells were washed with PBS before being lysed with Cell Lysis Buffer (Cell Signaling Technology®) supplemented with protease and phosphatase inhibitor cocktails (Roche™) at 4° C. for 15 minutes. The cell lysate was vortexed every 5 minutes over a 30-minute period before being centrifuged at 14,000×g for 20 min at 4° C. Protein in cell lysate was quantified by BCA assay (Pierce™). Primary antibodies used in this study include ALK (Cell Signaling Technology®, D5F3), Aurora A (Cell Signaling Technology®, 1F8), FAK (PTK2) (Cell Signaling Technology®, #3285), and GAPDH (Cell Signaling Technology®, 14C10). Blot quantification was performed using Image Studio™ 4.0 software, normalizing to loading control (GAPDH).
# [2] = system: EML4-ALK with secondary mutations L1196M, C1156Y, or G1202R; assay: CellTiter-Glo cell viability, ALK-positive Ba/F3 cells with EML4-ALK secondary mutations; conditions: 72 hours, FIG. 1A
# Protocol: (§2) CellTiter-Glo®: Cell viability was evaluated using the CellTiter-Glo® Luminescent Cell Viability Assay (Promega™) following the manufacturer's standards. 12-point dose titrations were tested in triplicate from 10000 nM to 0.056 nM over 72 hours. Anti-proliferative best fit EC50 values with 95% CI are shown as calculated by Graphpad Prism™ 7 software.
# [3] = molecular target: T2, FAK (PTK2) (Homo sapiens, UniProt Q05397); assay: Western blot, off target degradation of PTK2 in H3122 cells
# T2 construct: endogenous in cells; host or cells: H3122
# Protocol: as §1
# [4] = system: H3122 cells; assay: CellTiter-Glo cell viability, anti-proliferative activity in H3122 cells; conditions: 72 hours, FIG. 1A
# Protocol: as §2
# [5] = molecular target: T3, Aurora A (Homo sapiens, UniProt O14965); assay: Western blot, off target degradation of Aurora A in H3122 cells; conditions: 16-hour treatment, 0.01-1 μM
# T3 construct: ALK and aurora A degradation in H3122 cells; endogenous in cells; host or cells: H3122
# T3 sequence (O14965 1-403): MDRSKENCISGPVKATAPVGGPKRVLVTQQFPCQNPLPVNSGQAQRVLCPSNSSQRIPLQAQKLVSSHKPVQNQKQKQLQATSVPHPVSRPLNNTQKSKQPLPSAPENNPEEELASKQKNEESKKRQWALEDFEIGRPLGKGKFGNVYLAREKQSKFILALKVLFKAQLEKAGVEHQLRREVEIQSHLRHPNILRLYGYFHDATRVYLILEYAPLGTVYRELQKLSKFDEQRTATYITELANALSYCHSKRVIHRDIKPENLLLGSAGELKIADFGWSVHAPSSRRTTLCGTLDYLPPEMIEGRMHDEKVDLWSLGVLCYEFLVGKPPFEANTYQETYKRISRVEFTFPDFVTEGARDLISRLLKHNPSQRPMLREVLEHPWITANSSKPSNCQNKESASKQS
# Protocol: as §1
# [6] = system: EML4-ALK expressing cell lines; assay: CellTiter-Glo cell viability, EML4-ALK expressing cell lines; conditions: 72 hours, FIG. 2A / 3A
# Protocol: as §2
# The experimental protocol was as in Example 15.
# T2 sequence (Q05397 whole entry): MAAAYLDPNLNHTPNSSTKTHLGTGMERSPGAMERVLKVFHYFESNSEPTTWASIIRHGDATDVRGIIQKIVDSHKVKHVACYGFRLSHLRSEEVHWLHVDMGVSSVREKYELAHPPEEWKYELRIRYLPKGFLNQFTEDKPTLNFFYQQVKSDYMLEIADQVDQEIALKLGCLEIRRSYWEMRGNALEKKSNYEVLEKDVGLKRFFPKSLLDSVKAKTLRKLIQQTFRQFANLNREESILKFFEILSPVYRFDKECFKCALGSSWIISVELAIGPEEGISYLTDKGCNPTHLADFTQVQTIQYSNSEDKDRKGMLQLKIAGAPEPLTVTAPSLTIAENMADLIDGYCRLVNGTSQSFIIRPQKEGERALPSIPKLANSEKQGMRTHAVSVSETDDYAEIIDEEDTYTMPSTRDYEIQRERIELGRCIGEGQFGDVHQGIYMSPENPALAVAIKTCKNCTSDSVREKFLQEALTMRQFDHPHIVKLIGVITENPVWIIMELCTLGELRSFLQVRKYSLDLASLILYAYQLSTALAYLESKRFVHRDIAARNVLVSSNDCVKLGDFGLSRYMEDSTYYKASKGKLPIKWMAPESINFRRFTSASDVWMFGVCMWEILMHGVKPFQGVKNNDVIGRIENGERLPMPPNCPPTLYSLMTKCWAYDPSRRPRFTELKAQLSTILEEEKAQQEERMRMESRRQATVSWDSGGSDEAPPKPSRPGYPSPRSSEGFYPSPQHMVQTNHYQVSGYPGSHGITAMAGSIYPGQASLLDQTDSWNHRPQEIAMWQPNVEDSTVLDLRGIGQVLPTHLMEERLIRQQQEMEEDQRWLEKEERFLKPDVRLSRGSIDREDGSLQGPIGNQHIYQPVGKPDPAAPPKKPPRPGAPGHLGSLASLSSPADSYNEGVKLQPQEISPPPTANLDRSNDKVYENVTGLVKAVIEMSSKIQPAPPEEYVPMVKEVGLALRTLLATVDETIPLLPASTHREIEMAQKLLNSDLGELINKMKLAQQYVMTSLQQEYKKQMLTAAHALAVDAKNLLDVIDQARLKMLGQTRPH
# T1 sequence (Q9UM73 with tags, fused parts or gaps): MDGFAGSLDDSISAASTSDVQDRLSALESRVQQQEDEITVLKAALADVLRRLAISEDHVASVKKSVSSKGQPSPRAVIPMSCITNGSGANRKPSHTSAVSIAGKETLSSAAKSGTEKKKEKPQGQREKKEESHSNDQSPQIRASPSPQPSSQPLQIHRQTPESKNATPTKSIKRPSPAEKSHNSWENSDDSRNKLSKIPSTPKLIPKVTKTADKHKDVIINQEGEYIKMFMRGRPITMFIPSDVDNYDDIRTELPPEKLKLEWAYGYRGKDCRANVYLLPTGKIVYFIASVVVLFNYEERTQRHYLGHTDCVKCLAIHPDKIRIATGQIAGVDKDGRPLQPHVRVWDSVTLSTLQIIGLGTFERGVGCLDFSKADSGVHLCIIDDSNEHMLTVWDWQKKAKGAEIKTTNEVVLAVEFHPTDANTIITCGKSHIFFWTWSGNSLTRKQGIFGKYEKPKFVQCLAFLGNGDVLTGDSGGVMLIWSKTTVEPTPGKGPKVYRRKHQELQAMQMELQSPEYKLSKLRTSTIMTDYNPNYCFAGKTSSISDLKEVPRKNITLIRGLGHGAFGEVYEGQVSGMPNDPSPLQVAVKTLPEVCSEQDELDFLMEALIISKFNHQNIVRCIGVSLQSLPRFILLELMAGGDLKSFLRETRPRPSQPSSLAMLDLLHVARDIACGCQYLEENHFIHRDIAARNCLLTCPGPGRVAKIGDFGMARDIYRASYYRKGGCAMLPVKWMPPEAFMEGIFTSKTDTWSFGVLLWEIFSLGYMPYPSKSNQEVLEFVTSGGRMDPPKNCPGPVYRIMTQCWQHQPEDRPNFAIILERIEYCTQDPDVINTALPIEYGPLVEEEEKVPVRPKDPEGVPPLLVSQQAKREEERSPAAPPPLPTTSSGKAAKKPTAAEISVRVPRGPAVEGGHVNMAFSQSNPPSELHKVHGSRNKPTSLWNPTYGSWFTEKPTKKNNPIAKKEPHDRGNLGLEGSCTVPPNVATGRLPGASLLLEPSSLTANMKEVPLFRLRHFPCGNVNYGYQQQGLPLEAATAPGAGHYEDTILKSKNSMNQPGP
smiles,measurement,setting,value
"CCc1cc2c(cc1-c1cnn(CC(=O)NCCOCCOCCOCCOCCNc3cccc4c3C(=O)N(C3CCC(=O)NC3=O)C4=O)c1)C(C)(C)c1[nH]c3cc(C#N)ccc3c1C2=O (stereo not shown) [Compound 6, 2-(4-(3-cyano-9-ethyl-6,6-dimethyl-11-oxo-6,11-dihydro-5H-benzo[b]carbazol-8-yl)-1H-pyrazol-1-yl)-N-(14-((2-(2,6-dioxopiperidin-3-yl)-1,3-dioxoisoindolin-4-yl)amino)-3,6,9,12-tetraoxatetradecyl)acetamide]",degradation of ALK,[1],did not degrade ALK to a significant extent
"CCc1cc2c(cc1N1CCC(N3CCN(C(=O)CCOCCOCCNc4cccc5c4C(=O)N(C4CCC(=O)NC4=O)C5=O)CC3)CC1)C(C)(C)c1[nH]c3cc(C#N)ccc3c1C2=O (stereo not shown) [Compound 2, 8-(4-(4-(3-(2-(2-((2-(2,6-dioxopiperidin-3-yl)-1,3-dioxoisoindolin-4-yl)amino)ethoxy)ethoxy)propanol)piperazin-1-yl)piperidin-1-yl)-9-ethyl-6,6-dimethyl-11-oxo-6,11-dihydro-5H-benzo[b]carbazole-3-carbonitrile]","activity against EML4-ALK with secondary mutations L1196M, C1156Y, or G1202R",[2],comparable to the parental inhibitor alectinib
same,off target degradation of PTK2,"[3]; 16-hour treatment, 0.01-1 μM",very low
same,anti-proliferative activity in H3122 cells,[4],comparable to compound 12
same,off target degradation of Aurora A,[5],Off target degradation of Aurora A was also seen
same,degradation of ALK,[1],ability to degrade ALK in a dose dependent manner
"CCc1cc2c(cc1N1CCC(N3CCN(C(=O)CCOCCOCCOCCOCCNc4cccc5c4C(=O)N(C4CCC(=O)NC4=O)C5=O)CC3)CC1)C(C)(C)c1[nH]c3cc(C#N)ccc3c1C2=O (stereo not shown) [Compound 1, 8-(4-(4-(1-((2-(2,6-dioxopiperidin-3-yl)-1,3-dioxoisoindolin-4-yl)amino)-3,6,9,12-tetraoxapentadecan-15-oyl)piperazin-1-yl)piperidin-1-yl)-9-ethyl-6,6-dimethyl-11-oxo-6,11-dihydro-5H-benzo[b]carbazole-3-carbonitrile]","activity against EML4-ALK with secondary mutations L1196M, C1156Y, or G1202R",[2],comparable to the parental inhibitor alectinib
same,off target degradation of PTK2,"[3]; 16-hour treatment, 0.01-1 μM",very low
same,anti-proliferative activity in H3122 cells,[4],comparable to compound 12
same,off target degradation of Aurora A,[5],Off target degradation of Aurora A was also seen
same,degradation of ALK,[1],ability to degrade ALK in a dose dependent manner
"CCc1cc2c(cc1-c1cnn(CC(=O)NCCOCCOCCNc3cccc4c3C(=O)N(C3CCC(=O)NC3=O)C4=O)c1)C(C)(C)c1[nH]c3cc(C#N)ccc3c1C2=O (stereo not shown) [Compound 4, 2-(4-(3-cyano-9-ethyl-6,6-dimethyl-11-oxo-6,11-dihydro-5H-benzo[b]carbazol-8-yl)-1H-pyrazol-1-yl)-N-(2-(2-(2-((2-(2,6-dioxopiperidin-3-yl)-1,3-dioxoisoindolin-4-yl)amino)ethoxy)ethoxy)ethyl)acetamide]",degradation of ALK,[1],did not degrade ALK to a significant extent
"CCc1cc2c(cc1-c1cnn(CC(=O)NCCOCCOCCOCCOCCOCCOCCNc3cccc4c3C(=O)N(C3CCC(=O)NC3=O)C4=O)c1)C(C)(C)c1[nH]c3cc(C#N)ccc3c1C2=O (stereo not shown) [Compound 5, 2-(4-(3-cyano-9-ethyl-6,6-dimethyl-11-oxo-6,11-dihydro-5H-benzo[b]carbazol-8-yl)-1H-pyrazol-1-yl)-N-(20-((2-(2,6-dioxopiperidin-3-yl)-1,3-dioxoisoindolin-4-yl)amino)-3,6,9,12,15,18-hexaoxaicosyl)acetamide]",degradation of ALK,[1],significant degradation of ALK
same,anti-proliferative activity in EML4-ALK expressing cell lines,[6],slightly better activity than the other members of this group
"CCc1cc2c(cc1-c1cnn(CC(=O)N(C)CCOCCOCCOCCNc3cccc4c3C(=O)N(C3CCC(=O)NC3=O)C4=O)c1)C(C)(C)c1[nH]c3cc(C#N)ccc3c1C2=O (stereo not shown) [Compound 8, 2-(4-(3-cyano-9-ethyl-6,6-dimethyl-11-oxo-6,11-dihydro-5H-benzo[b]carbazol-8-yl)-1H-pyrazol-1-yl)-N-(2-(2-(2-(2-((2-(2,6-dioxopiperidin-3-yl)-1,3-dioxoisoindolin-4-yl)amino)ethoxy)ethoxy)ethoxy)ethyl)-N-methylacetamide]",degradation of PTK2,"[3]; 16-hour treatment, 1 μM",slight degradation of PTK2
same,off target degradation of Aurora A,[5],off target degradation of aurora A was still seen at higher doses
"Cc1cc(Nc2ncc(Cl)c(Nc3ccccc3S(=O)(=O)C(C)C)n2)c(OC(C)C)cc1C1CCN(CCOCCOCCNC(=O)CNc2cccc3c2C(=O)N(C2CCC(=O)NC2=O)C3=O)CC1 (stereo not shown) [Compound 12, N-(2-(2-(2-(4-(4-((5-Chloro-4-((2-(isopropylsulfonyl)phenyl)-amino)pyrimidin-2-yl)amino)-5-isopropoxy-2-methylphenyl)-piperidin-1yl)ethoxy)ethoxy)ethyl)-2-((2-(2,6-dioxopiperidin-3-yl)-1,3-dioxoisoindolin-4-yl)amino)acetamide]",off target degradation of PTK2,"[3]; time course, 100 nM",off target degradation activity against PTK2 that was seen
same,time at which ALK degradation is seen,"[1]; time course, 100 nM",around 4 hours
same,time of maximum ALK degradation,"[1]; time course, 100 nM",around 8 hours
